Here are results for 38 compounds from patent US20240025893A1, “PYRIMIDINE-AND NITROGEN-CONTAINING BICYCLIC COMPOUND” (Asahi Kasei Pharma Corporation, priority 2020, published 2024).

One experiment concerns the target human IRAK-4 (Homo sapiens (Human), UniProt Q9NWZ3). Nature of the experiment: Measurement of human IRAK-4 inhibitory activity (TR-FRET, peptide substrate phosphorylation, 10 μM ATP). The note with it: 1 nM IRAK-4, 10 μM ATP, 23° C., 30 minutes; average values. The format is biochemical. The procedure: For the measurement of the activity of the human IRAK-4 (Invitrogen, Cat. PV3362), phosphorylation of the IRAK-4 peptide substrate (biotin-KKKKRFSFKKSFKC) by the enzyme in the presence of 10 μM ATP (Sigma-Aldrich, Cat. A7699) was measured by the TR-FRET method. The enzymatic reaction was performed in a reaction buffer containing 50 mM HEPES (pH 7.2), 1 mM DTT, 0.1 mM Na3VO4, 5 mM MgCl2, 1 mM MnCl2, and 0.1% bovine serum albumin. For the measurement of the IRAK-4 inhibitory activity, a test compound was added to the reaction buffer containing 1 nM IRAK-4, 0.5 μM peptide substrate, and 10 μM ATP, and the mixture was incubated at 23° C. for 30 minutes. Then, a detection solution containing an antibody labeled with europium cryptate (0.3 μg/mL, the antibody was prepared by using the IRAK-4 peptide substrate as the antigen), streptavidin-XL665 (2 μg/mL, CisBio, Cat. 610SAXLB), 50 mM HEPES (pH 7.2), 0.1% BSA, 120 mM KF, and 66.7 mM EDTA (all the concentrations of the reagents are final concentrations) was added to terminate the reaction, and then the mixture was further incubated at 23° C. for 60 minutes. Fluorescence intensity was measured at wavelengths of 665 nm and 620 nm with a microplate reader, and the enzymatic activity was calculated as the ratio of fluorescence intensities at 665 nm and 620 nm (665 nm/620 nm).

The test system of experiment [1] is LPS-stimulated TNFα production in THP-1 cells. Nature of the experiment: LPS-stimulated TNFα production inhibition test using human acute monocytic leukemia cell strain THP-1. The class given is cell-based. The note with it: LPS 2.5 ng/mL, average values. The procedure: By the THP-1 assay, influence of a test compound on the TNFα production induced by LPS stimulation can be evaluated. The THP-1 cells (ATCC, Cat. TIB-202) were inoculated on a 96-well plate at a density of 1×10^5 cells/160 μL/well, a test compound was added in a volume of 20 μL, and the plate was incubated at 37° C. for 1 hour in a 5% CO2 incubator. Then, LPS in a volume of 20 μL (final concentration 2.5 ng/mL, Sigma, Cat. L2630) was added, and the plate was further incubated for 4 hours. After the incubation, the plate was centrifuged, and 100 μL of the supernatant was taken from each well, and used for evaluation of the amount of TNFα using HTRF (Cisbio, Cat. 62TNFPEB). In the measurement of the amount of TNFα, the supernatant was diluted twice with the medium, and then added to wells of a 384-well plate in a volume of 10 μL, then anti-TNFα-cryptate (5 μL), and anti-TNFα-XL665 (5 μL) were added, and the plate was left standing overnight. The fluorescence intensity ratio for the wavelengths of 620 and 665 nm (620 nm/665 nm) was measured with a microplate reader, and the amount of TNFα in the supernatant was calculated by using a calibration curve. The TNFα production suppression ratio observed with no addition of LPS was defined to be 100%, the TNFα production suppression ratio observed with no addition of the test compound was defined to be 0%, and IC50 of the test compound was calculated by using the 4-parameter logistic model of the data analysis software XLfit (ID Business Solutions Ltd.).

Sequence of human IRAK-4 (Q9NWZ3 whole entry): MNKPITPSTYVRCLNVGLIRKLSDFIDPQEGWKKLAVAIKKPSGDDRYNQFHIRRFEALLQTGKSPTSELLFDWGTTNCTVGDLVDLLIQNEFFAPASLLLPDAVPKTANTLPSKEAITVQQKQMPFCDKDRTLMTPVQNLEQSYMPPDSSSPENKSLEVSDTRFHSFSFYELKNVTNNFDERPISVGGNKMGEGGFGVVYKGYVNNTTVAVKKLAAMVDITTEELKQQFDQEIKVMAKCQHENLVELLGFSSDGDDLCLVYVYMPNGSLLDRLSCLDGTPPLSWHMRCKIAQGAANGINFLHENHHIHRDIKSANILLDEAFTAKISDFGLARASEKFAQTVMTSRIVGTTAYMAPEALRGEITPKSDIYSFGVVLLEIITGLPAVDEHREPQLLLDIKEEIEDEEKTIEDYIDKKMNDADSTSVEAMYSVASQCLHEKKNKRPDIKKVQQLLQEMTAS

Consider `O=C(Nc1nc2ccc(-c3cnc(CO[C@H]4CCC[C@@H]4O)nc3)cc2s1)C1CC1` [a-01-01, N-(6-(2-((((1S,2S)-2-Hydroxycyclopentyl)oxy)methyl)pyrimidin-5-yl)benzo[d]thiazol-2-yl)cyclopropanecarboxamide], for which the IC50 (as a rule, the concentration at which inhibition is half-maximal) against human IRAK-4 was determined as 1.89 nM; in experiment [1] (Homo sapiens, THP-1, 4 h), 121 nM.

On to `O=C(Nc1nc2ccc(-c3cnc(CO[C@H]4CCC[C@@H]4O)nc3)cc2s1)[C@H]1C[C@H]1F` [a-01-02], for which the IC50 on human IRAK-4 came to 1.98 nM; in experiment [1] (Homo sapiens, THP-1, 4 h), 180 nM. Taken in the same sequence, the figures for `O=C(Nc1nc2ccc(-c3cnc(CO[C@H]4CCC[C@@H]4O)nc3)cc2s1)[C@@H]1C[C@H]1F` [a-01-03] were 2.69 nM and 141 nM. Regarding `O=C(Nc1nc2ccc(-c3cnc(CO[C@H]4CCC[C@@H]4O)nc3)cc2s1)[C@@H]1C[C@@H]1F` [a-01-04], the IC50 amounted to 1.73 nM on human IRAK-4 and 151 nM in experiment [1] (Homo sapiens, THP-1, 4 h). As for `O=C(Nc1nc2ccc(-c3cnc(CO[C@H]4CCC[C@@H]4O)nc3)cc2s1)C1C[C@H]1c1cccnc1` (some centres unmarked) [a-01-05], the IC50 on human IRAK-4 amounted to 2.08 nM; in experiment [1] (Homo sapiens, THP-1, 4 h) it was 121 nM. In the case of `CO[C@H]1C[C@@H](C(=O)Nc2nc3ccc(-c4cnc(CO[C@H]5CCC[C@@H]5O)nc4)cc3s2)C1` [a-01-06], in experiment [1] (Homo sapiens, THP-1, 4 h), the IC50 was determined as 170 nM. Take `Cn1cc([C@@H]2CC2C(=O)Nc2nc3ccc(-c4cnc(CO[C@H]5CCC[C@@H]5O)nc4)cc3s2)cn1` (some centres unmarked) [a-01-07]: the IC50 at human IRAK-4 turned out to be 1.73 nM; in experiment [1] (Homo sapiens, THP-1, 4 h), 148 nM. The corresponding values for `O=C(Nc1nc2ccc(-c3cnc(CO[C@H]4CCC[C@@H]4O)nc3)cc2s1)C1C[C@H]1c1ccncc1` (some centres unmarked) [a-01-08] are 2.66 nM and 161 nM. Taken in the same sequence, the figures for `O=C(Nc1nc2ccc(-c3cnc(CO[C@H]4CCC[C@@H]4O)nc3)cc2s1)C1C[C@H]1C1CCOCC1` (some centres unmarked) [a-01-09] were 1.81 nM and 140 nM.

For `COc1ccc([C@@H]2CC2C(=O)Nc2nc3ccc(-c4cnc(CO[C@H]5CCC[C@@H]5O)nc4)cc3s2)cc1` (some centres unmarked) [a-01-10], the IC50 was found to be 12.1 nM against human IRAK-4 and 678 nM in experiment [1] (Homo sapiens, THP-1, 4 h). Taken in the same sequence, the figures for `O=C(Nc1nc2ccc(-c3cnc(CO[C@H]4CCC[C@@H]4O)nc3)c(Cl)c2s1)C1CC1` [a-01-11] were 7.89 nM and 437 nM.

With `O=C(Nc1nc2ccc(-c3cnc(CO[C@H]4CCC[C@@H]4O)nc3)c(F)c2s1)C1CC1` [a-01-12], the IC50 on human IRAK-4 was found to be 7.75 nM; in experiment [1] (Homo sapiens, THP-1, 4 h), 361 nM.

Turning to `CCCOCc1ncc(-c2ccc3nc(NC(=O)C4CC4)sc3c2)cn1` [a-02-01, N-(6-(2-(Propoxymethyl)pyrimidin-5-yl)benzo[d]thiazol-2-yl)cyclopropanecarboxamide], the IC50 against human IRAK-4 worked out at 16.1 nM; in experiment [1] (Homo sapiens, THP-1, 4 h) it was 330 nM. The corresponding values for `O=C(Nc1nc2ccc(-c3cnc(CO[C@H]4CC(F)(F)C[C@@H]4O)nc3)cc2s1)C1CC1` [a-03-01, N-(6-(2-((((1 S,2S)-4,4-Difluoro-2-hydroxycyclopentyl)oxy)methyl)pyrimidin-5-yl)benzo[d]thiazol-2-yl)cyclopropanecarboxamide] are 1.41 nM and 57 nM.

For the compound `O=C(Nc1nc2ccc(-c3cnc(COC4CCCC4)nc3)cc2s1)C1CC1` [a-04-01, N-(6-(2-(Cyclopentoxymethyl)pyrimidin-5-yl)-1,3-benzo[d]thiazol-2-yl)cyclopropanecarboxamide], the concentration for half-maximal inhibition (IC50) at human IRAK-4 came out at 1.38 nM; in experiment [1] (Homo sapiens, THP-1, 4 h) it was 261 nM. Take `O=C(Nc1nc2ccc(-c3cnc(COC4CCC4)nc3)cc2s1)C1CC1` [a-04-03]: the IC50 against human IRAK-4 is 2.32 nM; in experiment [1] (Homo sapiens, THP-1, 4 h) it was 355 nM. Turning to `O=C(Nc1nc2ccc(-c3cnc(COC4CC(F)(F)C4)nc3)cc2s1)C1CC1` [a-04-04], the half-maximal inhibitory concentration (IC50) on human IRAK-4 was 2.32 nM; in experiment [1] (Homo sapiens, THP-1, 4 h), 444 nM.

For `O=C(Nc1nc2ccc(-c3cnc(COC[C@@H]4CCCO4)nc3)cc2s1)C1CC1` [a-05-01], the half-inhibitory concentration (IC50) on human IRAK-4 worked out at 7.81 nM; in experiment [1] (Homo sapiens, THP-1, 4 h) it was 304 nM. Taken in the same sequence, the figures for `O=C(Nc1nc2ccc(-c3cnc(CO[C@H]4CCC[C@@H]4O)nc3)cc2s1)C1CC(N2CCOCC2)C1` (stereo partly drawn) [b-01-01, N-(6-(2-((((1S,2S)-2-Hydroxycyclopentyl)oxy)methyl)pyrimidin-5-yl)benzo[d]thiazol-2-yl)-3-moipholinocyclobutane-1-carboxamide] were 3.39 nM and 154 nM. Take `O=C(Nc1nc2ccc(-c3cnc(CO[C@H]4CCC[C@@H]4O)nc3)cc2s1)C1CC(N2CC(F)C2)C1` (some centres unmarked) [b-01-02]: the IC50 was found to be 3.33 nM against human IRAK-4 and 177 nM in experiment [1] (4 hours). As for `O=C(Nc1nc2ccc(-c3cnc(CO[C@H]4CCC[C@@H]4O)nc3)cc2s1)C1CC(N2CC[C@@H](F)C2)C1` (some centres unmarked) [b-02-01], the IC50 worked out at 3.16 nM on human IRAK-4 and 195 nM in experiment [1] (Homo sapiens, THP-1, 4 h).

For `O=C(Nc1nc2ccc(-c3cnc(CO[C@H]4CCC[C@@H]4O)nc3)cc2s1)C1CC(N2CC[C@H](F)C2)C1` (some centres unmarked) [b-02-02], the IC50 was 2.79 nM against human IRAK-4 and 195 nM in experiment [1] (Homo sapiens, THP-1, 4 h). The corresponding values for `O=C(Nc1nc2ccc(-c3cnc(CO[C@H]4CCC[C@@H]4O)nc3)cc2s1)C1CC(N2CCCOCC2)C1` (some centres unmarked) [b-02-03] are 2.53 nM and 166 nM.

With `O=C(Nc1nc2ccc(-c3cnc(CO[C@H]4CCC[C@@H]4O)nc3)cc2s1)C1CC(N2CCC(F)(F)CC2)C1` (some centres unmarked) [b-02-04], the IC50 on human IRAK-4 was 3.64 nM; in experiment [1] (Homo sapiens, THP-1, 4 h), 146 nM. As to `C[C@@H]1COCCN1C1CC(C(=O)Nc2nc3ccc(-c4cnc(CO[C@H]5CCC[C@@H]5O)nc4)cc3s2)C1` (some centres unmarked) [b-02-05], the IC50 was 2.12 nM against human IRAK-4 and 131 nM in experiment [1] (Homo sapiens, THP-1, 4 h).

On to `CC1(F)CN(C2CC(C(=O)Nc3nc4ccc(-c5cnc(CO[C@H]6CCC[C@@H]6O)nc5)cc4s3)C2)C1` (some centres unmarked) [b-02-45], for which the IC50 in experiment [1] (Homo sapiens, THP-1, 4 h) came out at 200 nM.

As to `O=C(Nc1nc2ccc(-c3cnc(CO[C@H]4CCC[C@@H]4O)nc3)cc2s1)C1CC(NC2CC(F)(F)C2)C1` (some centres unmarked) [b-02-64], half-maximal inhibition in experiment [1] (Homo sapiens, THP-1, 4 h) (IC50) required 164 nM.

On to `CN(C1CC(C(=O)Nc2nc3ccc(-c4cnc(CO[C@H]5CCC[C@@H]5O)nc4)cc3s2)C1)C1(C#N)CC1` (some centres unmarked) [b-02-73], for which the IC50 in experiment [1] (Homo sapiens, THP-1, 4 h) was 113 nM. The compound `O=C(Nc1nc2ccc(-c3cnc(CO[C@H]4CCC[C@@H]4O)nc3)cc2s1)C1CC(N2CCCC3(COC3)C2)C1` (some centres unmarked) [b-02-75] registered an IC50 in experiment [1] (Homo sapiens, THP-1, 4 h) of 186 nM. Regarding `C[C@H]1CN(S(C)(=O)=O)CCN1[C@H]1C[C@@H](C(=O)Nc2nc3ccc(-c4cnc(CO[C@H]5CCC[C@@H]5O)nc4)cc3s2)C1` [b-05-08], inhibition in experiment [1] (Homo sapiens, THP-1, 4 h) was half-maximal at 81 nM (IC50).

The compound `CCNC(=O)N1CCN([C@H]2C[C@@H](C(=O)Nc3nc4ccc(-c5cnc(CO[C@H]6CCC[C@@H]6O)nc5)cc4s3)C2)[C@@H](C)C1` [b-06-01] had an IC50 in experiment [1] (Homo sapiens, THP-1, 4 h) of 93 nM. On the same count and under the same terms, for `COc1c(-c2cnc(CO[C@H]3CCC[C@@H]3O)nc2)ccc2nc(NC(=O)[C@H]3C[C@@H]3C)sc12` [c-02-02] the value was 186 nM; for `COc1c(-c2cnc(CO[C@H]3CCC[C@@H]3O)nc2)ccc2nc(NC(=O)[C@H]3C[C@H]3C)sc12` [c-02-03], 229 nM; for `COCC(=O)N1CCC2(CC1)CC(C(=O)Nc1nc3ccc(-c4cnc(CO[C@H]5CCC[C@@H]5O)nc4)cc3s1)C2` [d-03-02], 111 nM. Consider `O=C(Nc1nc2ccc(-c3cnc(CO[C@H]4CCC[C@@H]4O)nc3)cc2s1)C1CC2(CCN(C(=O)C3CC3)CC2)C1` [d-03-03], for which the IC50 in experiment [1] (Homo sapiens, THP-1, 4 h) is 87 nM. Same read-out and setting: the same measure for `O=C(Nc1nc2ccc(-c3cnc(CO[C@H]4CCC[C@@H]4O)nc3)cc2s1)C1CC2(CCN(C(=O)c3ccccc3)CC2)C1` [d-03-04]: 194 nM; for `O=C(Nc1nc2ccc(-c3cnc(CO[C@H]4CCC[C@@H]4O)nc3)cc2s1)[C@H]1C[C@@H](OCC2CC2)C1` [d-04-04]: 169 nM; for `CC(C)(C)OC1CC(C(=O)Nc2cc3cc(-c4cnc(CO[C@H]5CCC[C@@H]5O)nc4)ccn3n2)C1` (stereo partly drawn) [e-03-01, 3-(tert-Butoxy)-N-(5-(2-((((1S,2S)-2-hydroxycyclopentyl)oxy)methyl)pyrimidin-5-yl)pyrazolo[1,5-a]pyridin-2-yl)cyclobutane-1-carboxamide]: 168 nM.
